# Reference: US20080269339A1, “COMBINED USE OF EGF PATHWAY INHIBITORS AND DIFFERENTIATION PROMOTING COMPOUNDS” (priority 2007, published 2008)
# Tested on: Human keratinocytes
# Assay: Cornified envelope formation (terminal differentiation) in confluent human keratinocyte culture
# Type: cell-based
# Conditions: for keratinocyte differentiation (percent of cornified envelopes): agent alone vs vehicle control, confluent keratinocytes, 5 days (FIG. 2, FIG. 3)
# Experimental: In this study, Keratinocyte Cell Culture-Neonatal foreskin kerinocytes, purchased from Lonza (Walkersville, Md., USA), were grown in keratinocyte-SFM (Gilbro-BRL, Gaithersburg, Md., USA). This complete medium consists of keratinocyte basal medium and supplements (Gibco-BRL), human combinant EGF (5 ng/mL) and bovine pituitary extract (50 μg protein/mL). The calcium concentration in this medium is 0.09 mM.
# Unless indicated in the description for a particular figure set forth below, confluent fifth passage keratinocytes were used, with treatments beginning 2 days after the last addition of complete medium. The media was changed and the cells were pretreated with PD153035 (300 nM) for two hours. Media was again changed to contain PD153035 (300 nM) and epidermal growth factor (10 ng/mL) and left for 24 hours. The media was changed a final time to basal media supplemented with 1 mM CaCl2 and 0.1% bovine serum albumin with the indicated chemical additions. The cells were incubated at 37° C., 5% CO2 for 5 days before the comified envelopes were scored. The vehicle, DMSO, was used as the control for both PD153035 and TCDD.
# In reference to FIG. 2, Human keratinocytes were grown to confluence and treated with vehicle of media (control), sodium butyrate, epidermal growth factor (EGF) or a combination of EGF and NAB for 5 days. Cornified envelope formation is an endpoint of terminal differentiation. The percent of comified envelopes was calculated by dividing the number of cornified envelopes by the number of cells (times 100).
# In FIG. 3, Human keratinocytes were grown to confluence and treated with vehicle of dimethylsulfoxide (DMSO), 2,3,7,8-tetrachlorodibenzo-p-dioxin (TCDD), epidermal growth factor (EFG) or a combination of EGF and TCDD for 5 days. Comified envelope formation is an endpoint of terminal cell differentiation. The percent of cornified envelopes was calculated by dividing the number of cornified envelopes by the number of cells (times 100).
# In FIG. 4, Human keratinocytes were grown to confluence and treated with vehicle of DMSO (−/−), sodium butyrate (NaB) alone (−/+); epidermal growth factor (EGF) alone (+/−) or a combination of EGF and NaB (+/+) with or without PD153035 for 5 days. Comified envelope formation is an endpoint of terminal cell differentiation. The average percent (n=3, +/−std dev) of cornified envelopes was calculated by dividing the number of cornified envelopes by the number of cells (times 100).
# In FIG. 5, Human keratinocytes were grown to confluence and treated with vehicle of DMSO (−/−), TCDD alone (−/+), epidermal growth factor (EGF) alone (+/−) or a combination of EGF and TCDD (+/+) with or without PD153035 for 5 days. Cornified envelope formation is an endpoint of terminal cell differentiation. The average percent (n=3, +/−std dev) of comified envelopes was calculated by dividing the number of cornified envelopes by the number of cells (times 100).
compound,measurement,setting,value
CCCC(=O)[O-].[Na+] [sodium butyrate],keratinocyte differentiation (percent of cornified envelopes),,increases in keratinocyte differentiation
COc1cc2ncnc(Nc3cccc(Br)c3)c2cc1OC [PD153035],effect on sodium butyrate mediated differentiation (percent of cornified envelopes),"PD153035 300 nM, in the presence of EGF 10 ng/mL, 5 days, n=3 (FIG. 4)",increasing sodium butyrate mediated differentiation
same,effect on TCDD-mediated differentiation (percent of cornified envelopes),"PD153035 300 nM, in the presence of EGF 10 ng/mL, 5 days, n=3 (FIG. 5)",increasing TCDD-mediated differentiation
"EGF: epidermal growth factor, a growth factor supporting the proliferation of epithelial cells",effect on TCDD increase in keratinocyte differentiation (percent of cornified envelopes),"combination of EGF and TCDD, 5 days (FIG. 3)",inhibited
same,effect on sodium butyrate increase in keratinocyte differentiation (percent of cornified envelopes),"combination of EGF and sodium butyrate, 5 days (FIG. 2)",inhibited
"Clc1cc2c(cc1Cl)Oc1cc(Cl)c(Cl)cc1O2 [TCDD, 2,3,7,8-tetrachlorodibenzo-p-dioxin]",keratinocyte differentiation (percent of cornified envelopes),,increases in keratinocyte differentiation
